Assay: method code SF-AS, from Smul'skii, S.; Bogatskii, A.; Andronati, S.; Vikhlyaev, Yu.; Zhilina, Z. (1977). Lipophilic nature of quinazolin-2-ones and 1,2-dihydro-3H-1,4-benzodiazepin-2-ones. Otdel. Khim. Nauk., 235(2)369-371.
Conditions: pH 7.4
CC1N=C(c2ccccc2)c2cc(Cl)ccc2N(C)C1=O (configuration not stated) showed a logD of 3.68. For CC1N=C(c2ccccc2)c2cc(Cl)ccc2NC1=O (configuration not stated), the logD was 3.25. For CC(C)C1N=C(c2ccccc2)c2cc(Br)ccc2NC1=O (configuration not stated), the logD was 4.18. O=c1nc(-c2ccccc2)c2ccccc2[nH]1 showed a logD of 1.91. O=C1CN=C(c2ccccc2)c2cc(Br)ccc2N1 gave a logD of 3.11. Work on Cc1ccc2[nH]c(=O)nc(-c3ccccc3)c2c1 yielded a logD of 2.32. Work on CC(=O)OC1N=C(c2ccccc2)c2cc(Br)ccc2NC1=O (configuration not stated) yielded a logD of 2.76. O=C1Nc2ccc(Br)cc2C(c2ccccc2Cl)=NC1O (configuration not stated) showed a logD of 2.54. With Cc1ccc2c(c1)=C(c1ccccc1)N(O)CC(=O)N=2 the logD was 1.13. CCCC1N=C(c2ccccc2)c2cc(Cl)ccc2NC1=O (configuration not stated) showed a logD of 4.14. With CC(=O)OC1N=C(c2ccccc2)c2cc(Cl)ccc2NC1=O (configuration not stated) the logD was 2.6. For CC(C)C1N=C(c2ccccc2)c2cc(Cl)ccc2NC1=O (configuration not stated), the logD was 4. With CCC1N=C(c2ccccc2)c2cc(Br)ccc2NC1=O (configuration not stated) the logD was 3.79. O=C1CN(O)C(c2ccccc2)=c2cc(Br)ccc2=N1 showed a logD of 1.53. With O=c1nc(-c2ccccc2)c2cc(Br)ccc2[nH]1 the logD was 2.71. With O=c1nc(-c2ccccc2)c2cc(Cl)ccc2[nH]1 the logD was 2.53. Work on O=C1CN=C(c2ccccc2Cl)c2cc(Br)ccc2N1 yielded a logD of 3.3.

From the SangsterLogP compilation
